Measurements published in the supplement of paper PMC10307832.

Assays:
Assay in all cases: relative viability (nuclei count vs DMSO), 5 days (fraction); higher = more cells survive
[1] = test system: A549
Method in brief: (§1)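 Lung cancer cell lines in 1536-well plates were dosed by pin tool the day after seeding, either with one drug alone or with a fixed anchor-drug dose plus five library-drug doses (not always all listed) in √10 steps. After 5 days, cells were fixed and their nuclei stained in one step (final 0.05% Triton X-100, 1% formaldehyde, 1 ug/ml Hoechst), then counted on 4× images. Relative viability is the nuclei count in treated wells divided by that in vehicle wells. Values are medians of duplicate plates.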

[2] = test system: Calu-6
Method in brief: as §1

[3] = test system: EBC-1
Method in brief: as §1

[4] = test system: IA-LM
Method in brief: as §1

[5] = test system: NCI-H1299
Method in brief: as §1

[6] = test system: NCI-H1355
Method in brief: as §1

[7] = test system: NCI-H1703
Method in brief: as §1

SMILES	relative viability ([1]; first compound 0.04 µM)	relative viability ([1]; first compound 0.1265 µM)	relative viability ([1]; first compound 0.4 µM)	relative viability ([1]; first compound 4 µM)	relative viability ([2]; first compound 0.04 µM)	relative viability ([2]; first compound 0.1265 µM)	relative viability ([2]; first compound 0.4 µM)	relative viability ([2]; first compound 4 µM)	relative viability ([3]; first compound 0.04 µM)	relative viability ([3]; first compound 0.1265 µM)	relative viability ([3]; first compound 0.4 µM)	relative viability ([3]; first compound 4 µM)	relative viability ([4]; first compound 0.04 µM)	relative viability ([4]; first compound 0.1265 µM)	relative viability ([4]; first compound 0.4 µM)	relative viability ([4]; first compound 4 µM)	relative viability ([5]; first compound 0.04 µM)	relative viability ([5]; first compound 0.1265 µM)	relative viability ([5]; first compound 0.4 µM)	relative viability ([5]; first compound 4 µM)	further results
Clc1ccc(Nc2nnc(Cc3ccncc3)c3ccccc23)cc1 [Vatalanib] + CS(=O)(=O)CCNCc1ccc(-c2ccc3ncnc(Nc4ccc(OCc5cccc(F)c5)c(Cl)c4)c3c2)o1 [Lapatinib] (partner 2 µM)	0.991	0.918	1.05	1.01	1.14	1.02	1.09	1.07	0.165	0.204	0.22	0.202	0.869	0.816	0.885	0.674	0.96	0.961	0.931	0.969	relative viability ([1]; first compound 1.265 µM): 1; relative viability ([2]; first compound 1.265 µM): 1.05; relative viability ([3]; first compound 1.265 µM): 0.232; relative viability ([4]; first compound 1.265 µM): 0.674; relative viability ([5]; first compound 1.265 µM): 0.939; relative viability ([6]; first compound 0.04 µM): 1.02; relative viability ([6]; first compound 0.1265 µM): 0.934; relative viability ([6]; first compound 0.4 µM): 1.14; relative viability ([6]; first compound 1.265 µM): 0.86; relative viability ([6]; first compound 4 µM): 0.887; relative viability ([7]; first compound 0.04 µM): 1.28; relative viability ([7]; first compound 0.1265 µM): 1.05; relative viability ([7]; first compound 0.4 µM): 1.4; relative viability ([7]; first compound 1.265 µM): 0.611; relative viability ([7]; first compound 4 µM): 0.435
C[C@@H]1CN(CC(=O)Nc2ccc3c(c2)Cc2cccc(-c4cc(=O)cc(N5CCOCC5)o4)c2S3)C[C@H](C)O1 + CC1(C)CCC(c2ccc(Cl)cc2)=C(CN2CCN(c3ccc(C(=O)NS(=O)(=O)c4ccc(N[C@H](CCN5CCOCC5)CSc5ccccc5)c(S(=O)(=O)C(F)(F)F)c4)cc3)CC2)C1 [Navitoclax] (partner 0.5 µM)	1.3	1.2	1.23	0.912	0.871	0.831	0.889	0.54	0.405	0.432	0.287	0.216	0.759	0.787	0.669	0.317	1.03	1.04	1.01	0.941	relative viability ([6]; first compound 0.04 µM): 0.978; relative viability ([6]; first compound 0.1265 µM): 0.894; relative viability ([6]; first compound 0.4 µM): 0.856; relative viability ([6]; first compound 4 µM): 0.899; relative viability ([7]; first compound 0.04 µM): 1.42; relative viability ([7]; first compound 0.1265 µM): 1.45; relative viability ([7]; first compound 0.4 µM): 0.911; relative viability ([7]; first compound 4 µM): 0.808
CC(C)Oc1cc(Nc2nc(N[C@@H](C)c3ccc(F)cn3)ncc2Cl)n[nH]1 [AZ23] + CS(=O)(=O)N1CCN(Cc2cc3nc(-c4cccc5[nH]ncc45)nc(N4CCOCC4)c3s2)CC1 [Pictilisib] (partner 1 µM)	–	–	–	–	–	–	–	–	–	–	–	–	–	–	–	–	–	–	–	–	relative viability ([1]; first compound 0.01 µM): 0.586; relative viability ([1]; first compound 0.03162 µM): 0.676; relative viability ([1]; first compound 0.3162 µM): 0.416; relative viability ([2]; first compound 0.01 µM): 0.883; relative viability ([2]; first compound 0.03162 µM): 1.13; relative viability ([2]; first compound 0.3162 µM): 0.986; relative viability ([3]; first compound 0.01 µM): 0.312; relative viability ([3]; first compound 0.03162 µM): 0.397; relative viability ([3]; first compound 0.3162 µM): 0.345; relative viability ([4]; first compound 0.01 µM): 0.403; relative viability ([4]; first compound 0.03162 µM): 0.334; relative viability ([4]; first compound 0.3162 µM): 0.419; relative viability ([5]; first compound 0.03162 µM): 0.954; relative viability ([5]; first compound 0.3162 µM): 1.13; relative viability ([6]; first compound 0.01 µM): 0.367; relative viability ([6]; first compound 0.03162 µM): 0.46; relative viability ([6]; first compound 0.3162 µM): 0.401; relative viability ([7]; first compound 0.03162 µM): 0.291; relative viability ([7]; first compound 0.3162 µM): 0.218
Clc1ccc(Nc2nnc(Cc3ccncc3)c3ccccc23)cc1 [Vatalanib] + CS(=O)(=O)N1CCN(Cc2cc3nc(-c4cccc5[nH]ncc45)nc(N4CCOCC4)c3s2)CC1 [Pictilisib] (partner 1 µM)	0.495	0.506	0.502	0.505	0.891	0.907	0.986	0.835	0.346	0.393	0.45	0.411	0.368	0.354	0.319	0.36	0.835	0.703	0.967	0.857	relative viability ([1]; first compound 1.265 µM): 0.52; relative viability ([2]; first compound 1.265 µM): 0.883; relative viability ([3]; first compound 1.265 µM): 0.276; relative viability ([4]; first compound 1.265 µM): 0.337; relative viability ([5]; first compound 1.265 µM): 0.66; relative viability ([6]; first compound 0.04 µM): 0.391; relative viability ([6]; first compound 0.1265 µM): 0.441; relative viability ([6]; first compound 0.4 µM): 0.53; relative viability ([6]; first compound 1.265 µM): 0.394; relative viability ([6]; first compound 4 µM): 0.457; relative viability ([7]; first compound 0.04 µM): 0.229; relative viability ([7]; first compound 0.1265 µM): 0.206; relative viability ([7]; first compound 0.4 µM): 0.242; relative viability ([7]; first compound 1.265 µM): 0.209; relative viability ([7]; first compound 4 µM): 0.227
